Test results taken from ChEMBL document CHEMBL1201862, “PubChem BioAssay data set” (2004).
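Interpolation was linear, between the two tested concentrations surrounding the appropriate level; five concentrations were tested over 48 hours in 96-well plates. GI50 marks 50% less growth.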 Active and inactive are the calls of the source. Cut-off read from the data, not from the text of the source: active = GI50 up to about 1.1 µM and inactive = higher.

What was measured:
Experiment in all cases: growth of human tumour cells (NCI), 48 h
A549 = system: A549
COLO 205 = system: COLO 205
HCC 2998 = system: HCC 2998
HCT-15 = system: HCT-15
HOP-62 = system: HOP-62
HOP-92 = system: HOP-92
IGROV-1 = system: IGROV-1
LOX IMVI = system: LOX IMVI
Malme-3M = system: Malme-3M
NCI/ADR-RES = system: NCI/ADR-RES
OVCAR-8 = system: OVCAR-8
SF-268 = system: SF-268
SK-MEL-2 = system: SK-MEL-2
SK-MEL-5 = system: SK-MEL-5
SK-OV-3 = system: SK-OV-3
SN12C = system: SN12C
U-251 = system: U-251
UACC-62 = system: UACC-62
SR = system: SR
TK-10 = system: TK-10

Measured: GI50

C[C@]12CC[C@H](O)C=C1CC[C@@H]1[C@@H]2CC[C@]2(C)C(c3ccc(=O)oc3)CC[C@]12O (stereo partly drawn)
0.0175 µM: HCT-15
active: A549 0.0125 µM | COLO 205 0.033 µM | HCC 2998 0.0372 µM | HOP-62 0.0125 µM | HOP-92 0.014 µM | IGROV-1 0.0141 µM | LOX IMVI 0.0125 µM | Malme-3M 0.0135 µM | NCI/ADR-RES 0.0328 µM | OVCAR-8 0.015 µM | SF-268 0.0125 µM | SK-MEL-2 0.0176 µM | SK-MEL-5 0.0125 µM | SK-OV-3 0.0294 µM | SN12C 0.0125 µM | U-251 0.0153 µM | UACC-62 0.0154 µM

CCCCCCCCCCCC[N+](CCCCCCCCCCCC)=C1SCCS1
10.7 µM: HCT-15
inactive: A549 4.78 µM | COLO 205 8.04 µM | HCC 2998 10.3 µM | HOP-62 16.7 µM | HOP-92 10.8 µM | IGROV-1 10.5 µM | LOX IMVI 1.97 µM | Malme-3M 6.64 µM | OVCAR-8 2.86 µM | SF-268 8.04 µM | SK-MEL-2 10.7 µM | SK-MEL-5 6.07 µM | SK-OV-3 16.6 µM | SN12C 3.92 µM | SR 3.14 µM | TK-10 15.2 µM | U-251 3.26 µM | UACC-62 10.8 µM

CN(C)c1ccc(N2C(=S)SC(=N\c3ccccc3)/C2=N/c2ccccc2)cc1
inactive: COLO 205 > 100 µM | HCC 2998 > 100 µM | HOP-62 > 100 µM | IGROV-1 > 100 µM | Malme-3M > 100 µM | NCI/ADR-RES > 100 µM | OVCAR-8 > 100 µM | SK-MEL-2 > 100 µM | SK-MEL-5 > 100 µM | SK-OV-3 > 100 µM | SN12C > 100 µM | SR > 100 µM | U-251 > 100 µM | UACC-62 > 100 µM
> 100 µM: HCT-15

COC1=CC(=O)C=C(OC)C1=O [2,6-DIMETHOXYQUINONE]
31.6 µM: HCT-15
inactive: A549 57.1 µM | COLO 205 12.6 µM | HCC 2998 27.9 µM | HOP-62 25.3 µM | HOP-92 4.16 µM | IGROV-1 11.3 µM | LOX IMVI 5.14 µM | Malme-3M 20.2 µM | NCI/ADR-RES 5.01 µM | OVCAR-8 8.93 µM | SF-268 6.46 µM | SK-MEL-2 6.55 µM | SK-MEL-5 20.9 µM | SK-OV-3 17.9 µM | SN12C 15.6 µM | U-251 31.6 µM | UACC-62 5.33 µM

COc1ccc2c(c1)c1cc(OC)ccc1n2CCCCOc1ccc(-c2c3ccccc3c(-c3ccc(OCCCCn4c5ccc(OC)cc5c5cc(OC)ccc54)cc3)c3ccccc23)cc1
inactive: A549 > 100 µM | COLO 205 > 100 µM | HCC 2998 > 100 µM | HOP-62 > 100 µM | HOP-92 > 100 µM | IGROV-1 > 100 µM | LOX IMVI > 100 µM | Malme-3M > 100 µM | OVCAR-8 > 100 µM | SF-268 > 100 µM | SK-MEL-2 > 100 µM | SK-OV-3 > 100 µM | SN12C > 100 µM | TK-10 > 100 µM | UACC-62 > 100 µM
> 100 µM: HCT-15

CC(=O)C(C(=O)C(=O)Nc1cc(Cl)c(Cl)cc1Cl)c1csc(N)n1 (stereo not drawn)
inactive: A549 > 100 µM | COLO 205 > 100 µM | HCC 2998 > 100 µM | HOP-62 > 100 µM | HOP-92 > 100 µM | IGROV-1 > 100 µM | LOX IMVI > 100 µM | OVCAR-8 > 100 µM | SF-268 > 100 µM | SK-MEL-2 > 100 µM | SK-MEL-5 > 100 µM | SK-OV-3 > 100 µM | SN12C > 100 µM | SR > 100 µM | TK-10 > 100 µM | U-251 > 100 µM | UACC-62 > 100 µM
> 100 µM: HCT-15

CCN(CC)CCCNc1ncc(C)c2[nH]c3ccncc3c12
35.1 µM: HCT-15
inactive: A549 4.91 µM | COLO 205 4.13 µM | HCC 2998 8.61 µM | HOP-62 18.6 µM | HOP-92 6.1 µM | IGROV-1 5.37 µM | LOX IMVI 3.64 µM | Malme-3M 10.3 µM | NCI/ADR-RES > 100 µM | OVCAR-8 7.29 µM | SF-268 6.75 µM | SK-MEL-2 10.5 µM | SK-MEL-5 13.6 µM | SK-OV-3 5.82 µM | SN12C 4.88 µM | U-251 7.21 µM | UACC-62 8.99 µM

CC1(C)N=C(N)N=C(N)N1c1ccc(OCCCOc2ccccc2)c(Cl)c1
active: A549 0.0473 µM | COLO 205 0.112 µM | HCC 2998 0.315 µM | HOP-92 0.409 µM | IGROV-1 < 0.0301 µM | LOX IMVI 0.0457 µM | Malme-3M 0.49 µM | OVCAR-8 0.514 µM | SF-268 0.0585 µM | SK-MEL-5 0.265 µM | SN12C 0.202 µM | U-251 < 0.0236 µM | UACC-62 0.472 µM
2.48 µM: HCT-15
inactive: NCI/ADR-RES > 100 µM | SK-MEL-2 1.37 µM | SK-OV-3 7.31 µM

N/N=C1\C(=O)N(c2ccc(Cl)c(Cl)c2)C(=O)C1C(=O)Nc1ccc(Cl)c(Cl)c1 (stereo not drawn)
50.7 µM: HCT-15
inactive: A549 42.9 µM | HCC 2998 62.4 µM | HOP-62 41.4 µM | HOP-92 48.1 µM | IGROV-1 73.8 µM | Malme-3M > 100 µM | OVCAR-8 42.8 µM | SF-268 55.1 µM | SK-MEL-2 50.4 µM | SK-MEL-5 17.5 µM | SN12C 51.5 µM | TK-10 > 100 µM | U-251 31.1 µM | UACC-62 51.4 µM

CC12Nc3ccccc3C1=C(c1ccccc1)CC1C(=O)OC(=O)C12 (stereo not drawn)
inactive: A549 > 100 µM | COLO 205 > 100 µM | HCC 2998 > 100 µM | HOP-62 > 100 µM | HOP-92 > 100 µM | IGROV-1 > 100 µM | LOX IMVI > 100 µM | Malme-3M > 100 µM | OVCAR-8 > 100 µM | SF-268 > 100 µM | SK-MEL-2 > 100 µM | SK-MEL-5 > 100 µM | SN12C > 100 µM | TK-10 > 100 µM | U-251 > 100 µM | UACC-62 > 100 µM
> 100 µM: HCT-15

COC(=O)C1=C(OC(=O)/C=C/c2ccc(Cl)cc2)C(C(=O)OC)[C@@]2(O)[C@@H](C(=O)OC)[C@H](C)C[C@@H]1[C@@H]2C(=O)OC (stereo partly drawn)
inactive: A549 23.2 µM | COLO 205 17.1 µM | HOP-62 28.8 µM | IGROV-1 3.94 µM | LOX IMVI 13.1 µM | Malme-3M 11.3 µM | NCI/ADR-RES 21.6 µM | OVCAR-8 14.6 µM | SF-268 16.7 µM | SK-MEL-2 15.7 µM | SK-MEL-5 17.2 µM | SK-OV-3 24.6 µM | SN12C 19 µM | TK-10 62.8 µM | U-251 28.4 µM | UACC-62 17.6 µM
19.3 µM: HCT-15

C=CCn1c(=O)c(C)cn(COCCO)c1=O
inactive: A549 > 100 µM | COLO 205 > 100 µM | HCC 2998 > 100 µM | HOP-62 > 100 µM | HOP-92 > 100 µM | IGROV-1 > 100 µM | LOX IMVI > 100 µM | Malme-3M > 100 µM | NCI/ADR-RES > 100 µM | OVCAR-8 > 100 µM | SF-268 > 100 µM | SK-MEL-2 > 100 µM | SK-MEL-5 > 100 µM | SN12C > 100 µM | TK-10 > 100 µM | U-251 > 100 µM

C=C1C(=O)OC2C1CC1OC2C(C)CCC/C(C)=C\CCC1(C)O (stereo not drawn)
18.2 µM: HCT-15
inactive: A549 29.7 µM | COLO 205 15.8 µM | HCC 2998 20.3 µM | HOP-62 32.2 µM | HOP-92 10.7 µM | IGROV-1 13.9 µM | LOX IMVI 6.55 µM | Malme-3M 32.7 µM | NCI/ADR-RES 14.4 µM | OVCAR-8 9.46 µM | SF-268 13 µM | SK-MEL-2 10.8 µM | SK-MEL-5 5.14 µM | SK-OV-3 65.3 µM | SN12C 19.5 µM | U-251 41.3 µM | UACC-62 9.04 µM

O=NN(CCCl)C(=O)N[C@H]1CCCC[C@@H]1Cl
> 100 µM: HCT-15
inactive: A549 61.5 µM | COLO 205 > 100 µM | HCC 2998 > 100 µM | HOP-92 > 100 µM | IGROV-1 > 100 µM | Malme-3M > 100 µM | OVCAR-8 > 100 µM | SF-268 16.7 µM | SK-MEL-2 > 100 µM | SK-MEL-5 > 100 µM | SK-OV-3 > 100 µM | SN12C 88.1 µM | SR 3.48 µM | TK-10 > 100 µM | U-251 30.4 µM

NC(=S)N/N=C1\c2ccccc2CCC1CCC1(O)CCc2ccccc2C1=O (stereo not drawn)
inactive: A549 36.1 µM | COLO 205 17.7 µM | HOP-62 57.4 µM | IGROV-1 37.8 µM | LOX IMVI 19.3 µM | Malme-3M 19.8 µM | NCI/ADR-RES 13.8 µM | OVCAR-8 16.6 µM | SF-268 42.1 µM | SK-MEL-5 15 µM | SK-OV-3 > 100 µM | SN12C 18.1 µM | SR 35.2 µM | TK-10 13.6 µM | U-251 28.6 µM | UACC-62 17.8 µM
39.7 µM: HCT-15

C[S+](C)([O-])=Nn1c(=O)n2n(c1=O)[C@H]1CC[C@@H]2C1
> 100 µM: HCT-15
inactive: A549 > 100 µM | COLO 205 > 100 µM | HOP-62 > 100 µM | HOP-92 > 100 µM | IGROV-1 > 100 µM | LOX IMVI > 100 µM | Malme-3M > 100 µM | NCI/ADR-RES > 100 µM | OVCAR-8 > 100 µM | SF-268 > 100 µM | SK-MEL-2 > 100 µM | SK-MEL-5 > 100 µM | SK-OV-3 > 100 µM | SR > 100 µM | TK-10 > 100 µM | U-251 > 100 µM | UACC-62 > 100 µM
